Laboratory results taken from patent publication US20260374818A1, “CATIONIC PEPTIDES WITH BROAD SPECTRUM ACTIVITY” (priority 2023, published 2026).
Where a SMILES comes first, the peptide text is derived from it. [ ]: non-standard residue; d: D form.

Tests used:
[1] = system: 3-day-old oral plaque biofilms; assay: Oral plaque biofilm model, brief (1 minute) exposure, dead cell volume; type: cell-based; settings: 10 μg/mL, 1 minute (FIG. 11)
[2] = system: Klebsiella pneumonia KPLN649; assay: Biofilm inhibition (at least 80%), K. pneumonia; type: cell-based; settings: K. pneumoniae KPLN649; n = 3; BM2 minimal media; 48 hours; crystal violet
[3] = system: Acinetobacter baumannii Ab5075; assay: Biofilm inhibition (at least 80%), A. baumannii; type: cell-based; settings: n = 4, BM2 minimal media, 18-24 hours, crystal violet
[4] = system: E. coli O157:H7; assay: Biofilm inhibition (at least 80%), E. coli; type: cell-based, Escherichia coli; settings: n = 3, BM2 minimal media, 18-24 hours, crystal violet
[5] = system: Enterobacter cloacae 218R1; assay: Biofilm inhibition (at least 80%), E. cloacae; type: cell-based; settings: E. cloacae 218R1; n = 3; BM2 minimal media; 18-24 hours; crystal violet
[6] = system: peripheral blood mononuclear cells (PBMCs); assay: Cytotoxicity (LDH release), PBMCs
[7] = system: P. aeruginosa PAO1; assay: Biofilm inhibition (at least 80%), P. aeruginosa; type: cell-based, Pseudomonas aeruginosa; settings: n = 4, BM2 minimal media, 18-24 hours, crystal violet
[8] = system: 3-day-old oral plaque (multispecies) biofilms; assay: Oral plaque biofilm model, long-term (1-3 days) exposure, dead cell volume; type: cell-based; settings: 10 μg/mL, 1 or 3 days (FIG. 10)
[9] = system: red blood cells; assay: Hemolysis; type: cell-based, human; settings: 4 hours
Method: Hemolysis: Peptide induced hemolysis was evaluated according to methods described previously [Hilchie, A. L., et al. (2016). Mastoparan is a membranolytic anti-cancer peptide that works synergistically with gemcitabine in a mouse model of mammary carcinoma. Biochimica Et Biophysica Acta, 1858(12), 3195-3204]. Briefly, red blood cells were obtained, with human ethics approval, from the blood of healthy volunteers collected in a sodium heparin tube and then rinsed three times in PBS, centrifuging between washes, to obtain the hematocrit (100% RBC). A 2.5% RBCs suspension was exposed to peptide at varying concentrations and incubated at 37 C in a 5% CO2 humidified atmosphere for 4 hours. Supernatants were collected following centrifugation (1100 rpm) and transferred to a flat bottom microtitre plate. The absorbance (490 nm) of each supernatant was measured on a BioTek Epoch Microplate Spectrophotometer. Percent hemolysis was calculated by comparing the absorbance arising from peptide treated cells to RBCs treated with […] (0% hemolysis) or lysed with 1% Triton X-100 (100% hemolysis).

[10] = system: Enterococcus faecium #2-1; assay: Biofilm inhibition (at least 80%), E. faecium; type: cell-based; settings: E. faecium #2-1; n = 3; TSB + 1% glucose; 48 hours; crystal violet
[11] = system: MRSA USA300; assay: Biofilm inhibition (at least 80%), MRSA; type: cell-based, methicillin resistant Staphylococcus aureus; settings: n = 4, 10% TSB + 0.1% glucose, 18-24 hours, crystal violet
[12] = system: ESKAPEE Pathogens

CC[C@@H](C)[C@@H](NC(=O)[C@@H](C)NC(=O)[C@@H](CCCNC(=N)N)NC(=O)[C@@H](Cc1c[nH]c2ccccc12)NC(=O)[C@@H](CCC(N)=O)NC(=O)[C@H](N)C(C)C)C(=O)N[C@H](CCCNC(=N)N)C(=O)N[C@@H](C(=O)N[C@@H](C(=O)N[C@@H](C(=O)N[C@@H](C(=O)N[C@H](CCCNC(=N)N)C(N)=O)[C@H](C)CC)C(C)C)[C@H](C)CC)C(C)C [AB107-D, vqwrairvivir-NH2] (H-[dV][dQ][dW][dR][dA][dI][dR][dV][dI][dV][dI][dR]-NH2)
Killing of oral plaque biofilms, brief exposure [1]: comparable to or better than peptide DJK-5
Peptide/Antibiotic Concentration where at least 80% of biofilm growth was inhibited [2]: 4 µg/mL
Peptide/Antibiotic Concentration where at least 80% of biofilm growth was inhibited [3]: 1 µg/mL
Peptide/Antibiotic Concentration where at least 80% of biofilm growth was inhibited [4]: 1 µg/mL
Peptide/Antibiotic Concentration where at least 80% of biofilm growth was inhibited [5]: 1 µg/mL
Cytotoxicity (LDH) [6]: non-toxic at all concentrations evaluated
Peptide/Antibiotic Concentration where at least 80% of biofilm growth was inhibited [7]: 4 µg/mL
Killing of oral plaque biofilms, long-term exposure [8]: significantly enhanced killing of the oral plaque biofilms
Hemolysis [9]: non-toxic at all concentrations evaluated
Peptide/Antibiotic Concentration where at least 80% of biofilm growth was inhibited [10]: 1 µg/mL
Peptide/Antibiotic Concentration where at least 80% of biofilm growth was inhibited [11]: 1 µg/mL
Broad spectrum antibiofilm activity, more active than DJK5 [12]: 2-4 fold
